Blank lines part the entries; values can stand above or below the compound they belong to. The source made the active and inactive calls. The rule behind the calls is not given here.
Tests used:
[1] = Terminal half life in iv dosed mouse; assay type: ADME, organism-based; settings: in vivo, read-out: beta t1/2
Pleckstrin = biological target: T1, Pleckstrin (Homo sapiens, UniProt P08567); assay: Binding affinity to PLEK PH-domain (unknown origin) at 0.01 to 50 uM by SPR spectroscopy
T1 sequence (P08567 whole entry): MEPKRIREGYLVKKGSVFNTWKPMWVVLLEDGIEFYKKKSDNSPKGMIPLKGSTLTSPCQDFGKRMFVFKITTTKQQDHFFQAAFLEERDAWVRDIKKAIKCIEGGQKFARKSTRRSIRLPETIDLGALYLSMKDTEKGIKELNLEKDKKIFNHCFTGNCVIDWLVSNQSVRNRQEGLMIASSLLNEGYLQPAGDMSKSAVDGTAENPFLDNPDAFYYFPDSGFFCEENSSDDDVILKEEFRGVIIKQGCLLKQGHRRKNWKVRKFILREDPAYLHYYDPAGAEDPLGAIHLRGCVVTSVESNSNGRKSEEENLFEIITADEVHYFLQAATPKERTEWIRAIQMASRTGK

[2] = Cmax in C57BL6 mouse plasma at 250 mg/kg, po dosed via gavage as single administration; assay type: ADME, organism-based; set-up: dose 250 mg/kg, route oral
[3] = Half life in C57BL6 mouse at 250 mg/kg, po dosed via gavage as single administration; assay type: ADME, organism-based; settings: in vivo
HCC95 = assay: Growth inhibition of human HCC95 cells incubated for 3 days; assay type: functional, cell-based; settings: HCC95, 72 h
[4] = Growth inhibition of human […] cells incubated for 3 days; assay type: functional; settings: 72 h
NCI-H2122 [5] = assay: Growth inhibition of human NCI-H2122 cells incubated for 3 days; assay type: functional, cell-based; settings: NCI-H2122, 72 h
HCC515 [6] = assay: Growth inhibition of human HCC515 cells incubated for 3 days; assay type: functional, cell-based; settings: HCC515, 72 h
[7] = biological target: T2, Connector enhancer of kinase suppressor of ras 1 (Homo sapiens) (UniProt Q969H4); assay: Inhibition of CNKSR1 (unknown origin) assessed as reduction in inhibition of KRas signaling effectors by measuring p-AKT levels at 20 uM by cell based assay
T2 sequence (whole entry): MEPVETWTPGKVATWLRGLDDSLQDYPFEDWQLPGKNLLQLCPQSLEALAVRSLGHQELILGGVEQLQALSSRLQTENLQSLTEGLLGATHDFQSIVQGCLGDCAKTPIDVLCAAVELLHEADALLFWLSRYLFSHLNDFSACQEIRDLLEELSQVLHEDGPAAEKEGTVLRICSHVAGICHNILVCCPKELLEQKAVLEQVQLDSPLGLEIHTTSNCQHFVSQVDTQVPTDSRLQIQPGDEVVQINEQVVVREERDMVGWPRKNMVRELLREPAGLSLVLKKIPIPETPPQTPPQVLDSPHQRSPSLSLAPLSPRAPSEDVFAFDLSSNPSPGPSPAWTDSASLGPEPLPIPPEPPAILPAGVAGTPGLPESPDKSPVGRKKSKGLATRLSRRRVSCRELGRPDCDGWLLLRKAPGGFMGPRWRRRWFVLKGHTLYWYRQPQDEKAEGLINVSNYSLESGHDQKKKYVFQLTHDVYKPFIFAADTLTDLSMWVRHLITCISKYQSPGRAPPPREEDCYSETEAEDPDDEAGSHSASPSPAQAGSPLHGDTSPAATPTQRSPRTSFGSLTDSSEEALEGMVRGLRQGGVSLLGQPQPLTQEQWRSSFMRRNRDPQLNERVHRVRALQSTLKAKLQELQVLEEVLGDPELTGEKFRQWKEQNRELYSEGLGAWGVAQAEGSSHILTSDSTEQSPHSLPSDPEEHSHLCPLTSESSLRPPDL

[8] = biological target: T2, Connector enhancer of kinase suppressor of ras 1 (Homo sapiens); assay: Inhibition of CNKSR1 (unknown origin) assessed as reduction in inhibition of KRas signaling effectors by measuring p-MAPK levels at 20 uM by cell based assay
[9] = biological target: T2, Connector enhancer of kinase suppressor of ras 1 (Homo sapiens); assay: Inhibition of CNKSR1 (unknown origin) assessed as reduction in inhibition of KRas signaling effectors by measuring GTP-RalA levels at 20 uM by cell based assay
[10] = biological target: T2, Connector enhancer of kinase suppressor of ras 1 (Homo sapiens); assay: Inhibition of GFP-tagged CNKSR1 (unknown origin) expressed in HEK293T cells assessed as blocking of membrane colocalization of CNKSR1 and mutant-KRas at plasma membrane at 50 uM incubated for 4 hrs by confocal imaging assay; assay type: cell-based
[11] = biological target: T2, Connector enhancer of kinase suppressor of ras 1 (Homo sapiens); assay: Inhibition of GFP-tagged CNKSR1 (unknown origin) expressed in HEK293T cells assessed as reduction in total mutant-KRas protein at 50 uM incubated for 4 hrs by confocal imaging assay; assay type: cell-based
[12] = biological target: T2, Connector enhancer of kinase suppressor of ras 1 (Homo sapiens); assay: Inhibition of GFP-tagged CNKSR1 (unknown origin) expressed in HEK293T cells assessed as inhibition of direct binding of CNKSR1 to mut-KRAS at 50 uM incubated for 4 hrs by fluorescence lifetime imaging microscopy; assay type: cell-based
A549 [13] = assay: Antitumor activity against human A549 cells xenografted in nu/nu mouse assessed as reduction in tumor volume at 200 mg/kg, ip dosed daily for 8 days; assay type: functional, organism-based
A549 [14] = assay: Antitumor activity against human A549 cells xenografted in nu/nu mouse assessed as reduction in tumor volume at 200 mg/kg, ip dosed daily for 8 days co-treated with 75 mg/kg, po erlotinib; assay type: functional, organism-based
[15] = biological target: RAC-alpha serine/threonine-protein kinase (Homo sapiens, UniProt P31749); assay: Binding affinity to AKT PH-domain (unknown origin) at 0.01 to 50 uM by SPR spectroscopy
HCC515 [16] = assay: Growth inhibition of human HCC515 cells relative to control; assay type: functional, cell-based
NCI-H2122 [17] = assay: Growth inhibition of human NCI-H2122 cells relative to control; assay type: functional, cell-based
A549 [18] = assay: Growth inhibition of human A549 cells relative to control; assay type: functional, cell-based
NCI-H1373 = assay: Growth inhibition of human NCI-H1373 cells relative to control; assay type: functional, cell-based
[19] = biological target: T3, 3-phosphoinositide-dependent protein kinase 1 (Homo sapiens) (UniProt O15530); assay: Binding affinity to PDPK1 PH-domain (unknown origin) at 0.01 to 50 uM by SPR spectroscopy
T3 sequence (whole entry): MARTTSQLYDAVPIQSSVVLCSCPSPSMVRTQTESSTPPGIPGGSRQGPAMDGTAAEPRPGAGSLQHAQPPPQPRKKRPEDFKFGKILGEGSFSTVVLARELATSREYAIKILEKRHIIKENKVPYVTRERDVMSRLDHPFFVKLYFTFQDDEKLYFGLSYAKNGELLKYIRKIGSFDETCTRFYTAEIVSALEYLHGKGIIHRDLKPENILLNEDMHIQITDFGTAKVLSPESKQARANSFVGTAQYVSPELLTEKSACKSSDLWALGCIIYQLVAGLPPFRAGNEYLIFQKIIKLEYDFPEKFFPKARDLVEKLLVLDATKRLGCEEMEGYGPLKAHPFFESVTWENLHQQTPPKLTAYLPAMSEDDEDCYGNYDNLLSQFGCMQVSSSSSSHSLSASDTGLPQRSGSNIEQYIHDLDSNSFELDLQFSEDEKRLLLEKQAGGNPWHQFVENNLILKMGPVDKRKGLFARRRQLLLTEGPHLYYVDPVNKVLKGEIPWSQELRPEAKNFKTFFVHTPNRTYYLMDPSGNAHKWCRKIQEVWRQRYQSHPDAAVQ

[20] = biological target: Rho guanine nucleotide exchange factor TIAM1 (Homo sapiens) (UniProt Q13009); assay: Binding affinity to TIAM1 PH-domain (unknown origin) at 0.01 to 50 uM by SPR spectroscopy
Homo sapiens [21] = organism: Homo sapiens; assay: Selectivity index, ratio of binding affinity to AKT PH-domain (unknown origin) by SPR spectroscopy to binding affinity to CNKSR1 PH-domain (unknown origin) by SPR spectroscopy
Homo sapiens [22] = organism: Homo sapiens; assay: Selectivity index, ratio of binding affinity to PDPK1 PH-domain (unknown origin) by SPR spectroscopy to binding affinity to CNKSR1 PH-domain (unknown origin) by SPR spectroscopy
Homo sapiens [23] = organism: Homo sapiens; assay: Selectivity index, ratio of binding affinity to TIAM1 PH-domain (unknown origin) by SPR spectroscopy to binding affinity to CNKSR1 PH-domain (unknown origin) by SPR spectroscopy
[24] = biological target: T4, Connector enhancer of kinase suppressor of ras 1 (Homo sapiens, UniProt Q969H4); assay: Binding affinity to CNKSR1 PH-domain (unknown origin) by SPR spectroscopy
T4 sequence (Q969H4 whole entry): T2 sequence (whole entry)

RAC-alpha serine/threonine-protein kinase, sequence (P31749 whole entry): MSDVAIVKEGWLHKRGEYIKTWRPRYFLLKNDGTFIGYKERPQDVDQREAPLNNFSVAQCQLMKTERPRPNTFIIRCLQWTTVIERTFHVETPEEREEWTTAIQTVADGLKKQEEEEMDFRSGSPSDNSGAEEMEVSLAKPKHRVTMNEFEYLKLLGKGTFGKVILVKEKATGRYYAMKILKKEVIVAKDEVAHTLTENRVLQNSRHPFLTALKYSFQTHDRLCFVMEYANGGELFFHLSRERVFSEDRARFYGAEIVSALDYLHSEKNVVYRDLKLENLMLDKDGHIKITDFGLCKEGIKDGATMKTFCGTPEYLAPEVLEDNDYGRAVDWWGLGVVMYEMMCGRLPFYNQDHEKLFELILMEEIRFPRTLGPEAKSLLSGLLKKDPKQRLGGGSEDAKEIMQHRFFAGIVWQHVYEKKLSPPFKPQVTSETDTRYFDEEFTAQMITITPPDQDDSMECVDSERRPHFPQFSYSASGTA
Rho guanine nucleotide exchange factor TIAM1 (Homo sapiens), sequence (Q13009 whole entry): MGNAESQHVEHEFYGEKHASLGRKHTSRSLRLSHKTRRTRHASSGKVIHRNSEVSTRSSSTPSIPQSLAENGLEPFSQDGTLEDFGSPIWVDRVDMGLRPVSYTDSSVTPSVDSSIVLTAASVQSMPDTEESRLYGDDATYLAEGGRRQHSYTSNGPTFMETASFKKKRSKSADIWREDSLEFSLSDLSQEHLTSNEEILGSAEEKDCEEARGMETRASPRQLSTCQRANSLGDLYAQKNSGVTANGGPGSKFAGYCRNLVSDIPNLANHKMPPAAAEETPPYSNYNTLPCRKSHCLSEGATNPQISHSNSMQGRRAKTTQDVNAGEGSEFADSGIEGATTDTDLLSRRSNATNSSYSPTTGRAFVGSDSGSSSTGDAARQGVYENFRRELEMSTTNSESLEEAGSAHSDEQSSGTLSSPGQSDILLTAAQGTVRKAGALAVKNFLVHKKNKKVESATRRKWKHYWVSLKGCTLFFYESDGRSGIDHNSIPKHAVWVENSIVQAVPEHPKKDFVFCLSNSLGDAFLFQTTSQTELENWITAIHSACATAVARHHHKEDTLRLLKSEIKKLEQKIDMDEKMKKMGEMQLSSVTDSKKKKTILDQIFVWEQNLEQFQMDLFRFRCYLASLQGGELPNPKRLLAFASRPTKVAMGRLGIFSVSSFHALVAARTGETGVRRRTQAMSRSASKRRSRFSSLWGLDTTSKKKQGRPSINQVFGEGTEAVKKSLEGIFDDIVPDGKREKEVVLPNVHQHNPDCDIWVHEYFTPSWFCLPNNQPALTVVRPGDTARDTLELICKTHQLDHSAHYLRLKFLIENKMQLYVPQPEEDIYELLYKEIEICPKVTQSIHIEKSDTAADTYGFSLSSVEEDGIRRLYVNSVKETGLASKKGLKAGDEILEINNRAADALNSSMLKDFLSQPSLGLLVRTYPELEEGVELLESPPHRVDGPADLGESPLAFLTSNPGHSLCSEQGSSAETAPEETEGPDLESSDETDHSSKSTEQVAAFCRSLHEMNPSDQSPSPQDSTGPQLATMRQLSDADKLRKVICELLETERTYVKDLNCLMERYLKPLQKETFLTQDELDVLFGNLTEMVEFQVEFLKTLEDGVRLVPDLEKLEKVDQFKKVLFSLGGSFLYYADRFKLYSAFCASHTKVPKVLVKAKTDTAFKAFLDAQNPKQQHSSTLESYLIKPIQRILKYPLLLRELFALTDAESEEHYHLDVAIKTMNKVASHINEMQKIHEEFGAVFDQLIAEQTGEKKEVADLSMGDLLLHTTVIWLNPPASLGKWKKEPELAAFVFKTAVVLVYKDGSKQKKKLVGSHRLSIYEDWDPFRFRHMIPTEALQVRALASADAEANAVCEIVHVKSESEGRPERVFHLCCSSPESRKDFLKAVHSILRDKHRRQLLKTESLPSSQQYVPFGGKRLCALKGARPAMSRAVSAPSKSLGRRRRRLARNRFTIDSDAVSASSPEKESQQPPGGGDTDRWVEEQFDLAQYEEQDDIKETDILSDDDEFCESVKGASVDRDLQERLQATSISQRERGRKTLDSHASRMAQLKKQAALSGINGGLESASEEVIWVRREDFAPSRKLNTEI

Kd (Pleckstrin): 300 µM
SMILES: CCOC(=O)/C=C/c1c(O)c(OC)cc(NS(=O)(=O)c2cccs2)c1SC

Activity [15]: Active
SMILES: Cc1c(Cl)ccc2c(C(=O)O)cc(-c3cccnc3)nc12

Activity [15]: inactive | Activity [19]: inactive | Activity [20]: inactive | Ratio (Homo sapiens [21]): 50 to 100 | Ratio (Homo sapiens [22]): 50 to 100 | Ratio (Homo sapiens [23]): 50 to 100
SMILES: CC(=O)Nc1cccc(-n2nnc(SCC(=O)c3cc(-c4ccccc4)no3)n2)c1
growth inhibition (GI) (HCC515 [16]): Active | growth inhibition (GI) (NCI-H2122 [17]): Active | growth inhibition (GI) (A549 [18]): Active | growth inhibition (GI) (NCI-H1373): Active

Kd ([24]; read-out: Kd): 5340 nM | Kd ([15]; read-out: Kd): 0.474 nM
SMILES: O=C(O)c1ccc2c(c1)C1C=CCC1C(C(=O)O)N2 (stereo not drawn)

Kd ([24]; read-out: Kd): 1010 nM | Kd ([15]; read-out: Kd): 1280 nM
SMILES: Cc1ccc(-c2nc(SCC(=O)O)c3c(=O)n(C)c(=O)n(C)c3n2)cc1

half-life [1]: 245 min | IC50 (HCC95): 46 µM | IC50 (NCI-H2122 [5]): 26 µM | IC50 (HCC515 [6]): 28 µM | inhibition [7]: Active | inhibition [8]: Active | inhibition [9]: Active
SMILES: Cc1ccc(-c2csc(Cn3nc(Cc4nccs4)c4ccccc4c3=O)n2)cc1
IC50 [4]: 49 µM

IC50 (HCC95): 40 µM | IC50 (NCI-H2122 [5]): > 100 µM | IC50 (HCC515 [6]): 34 µM | inhibition [7]: Active | inhibition [8]: Active | inhibition [9]: Active
SMILES: Cc1ccc(-c2csc(Cn3nc(CC4OCC(=O)O4)c4ccccc4c3=O)n2)cc1 (stereo not drawn)
IC50 [4]: 56 µM

Kd ([24]; read-out: Kd): 0.196 nM | Activity [15]: Active
SMILES: O=C(O)CCc1ccc(-c2ccc(Br)cc2)n1CCC(=O)O

Kd ([24]; read-out: Kd): 1130 nM | Activity [15]: Active
SMILES: O=C(O)COc1cc(OCC(=O)O)c2c3c(c(=O)oc2c1)CCCC3

Kd [24]: Not Active | Kd [15]: Not Active
SMILES: COc1c(/C=C/C(=O)O)cc(NS(=O)(=O)c2cccs2)c2c1OCO2

Activity [15]: Active
SMILES: Nc1cccc(-c2cc(C(=O)O)c3cc(Cl)ccc3n2)c1

More lines, now with the values behind:

SMILES: Cc1ccc(-c2csc(Cn3nc(CC(=O)N4CCN(C)CC4)c4ccccc4c3=O)n2)cc1
half-life [1]: 327 min

SMILES: Cc1ccc(-c2csc(Cn3nc(CC(=O)O)c4ccccc4c3=O)n2)cc1
half-life [1]: 72 min | Cmax [2]: 230 µM | half-life [3]: 780 min | IC50 (HCC95): > 100 µM | IC50 [4]: > 100 µM | IC50 (NCI-H2122 [5]): > 100 µM | IC50 (HCC515 [6]): > 100 µM | inhibition [7]: Active | inhibition [8]: Active | inhibition [9]: Active

SMILES: Cc1ccc(-c2csc(Cn3nc(CC4OCCCO4)c4ccccc4c3=O)n2)cc1
half-life [1]: 260 min | IC50 (HCC95): 45 µM | IC50 [4]: 38 µM | IC50 (NCI-H2122 [5]): > 100 µM | IC50 (HCC515 [6]): 37 µM | inhibition [10]: Active | inhibition [11]: Active | inhibition [12]: Active | inhibition [7]: Active | inhibition [8]: Active | inhibition [9]: Active | TGI (A549 [13]): Active | TGI (A549 [14]): Active

SMILES: CCNC(=O)Cc1nn(Cc2nc(-c3ccc(C)cc3)cs2)c(=O)c2ccccc12
half-life [1]: 28 min | TGI (A549 [13]): Active

SMILES: COc1ccc(OC)c(-c2cc(C(=O)O)c3nc(C)[nH]c3n2)c1
Activity [15]: Active

SMILES: O=C(O)CSc1cc(NS(=O)(=O)c2cccs2)c2ccccc2c1O
Kd ([24]; read-out: Kd): 3640 nM | Activity [15]: Active | IC50 (HCC95): 13 µM | IC50 [4]: 7 µM | IC50 (NCI-H2122 [5]): 34 µM | IC50 (HCC515 [6]): 11 µM

SMILES: CCOC(=O)/C=C/c1cc(NS(=O)(=O)c2cccs2)c2c(c1O)OCO2
Kd (Pleckstrin): 261 µM

SMILES: Cc1ccc(-c2csc(Cn3nc(CC=O)c4ccccc4c3=O)n2)cc1
half-life [1]: 35 min

Reference: ChEMBL document CHEMBL4419164, “Methods and compositions for inhibiting cnksr1” (2018)
